Experimental data reported in ChEMBL document CHEMBL4043168, “The design and SAR of a novel series of 2-aminopyridine based LRRK2 inhibitors” (Bioorg Med Chem Lett, 2017).
≈ marks a conversion by molar mass, not a printed value.

Columns and labels:
[1] = molecular target: T1, Serine/threonine-protein kinase ULK3 (Homo sapiens) (UniProt Q6PHR2); experiment: Inhibition of ULK3 conserved Lys1 (EVVAIKCVAK) in human PBMC at 1 uM; conditions: pooled result: one value given for 4 cell lines, strains, targets or settings
T1 sequence (whole entry): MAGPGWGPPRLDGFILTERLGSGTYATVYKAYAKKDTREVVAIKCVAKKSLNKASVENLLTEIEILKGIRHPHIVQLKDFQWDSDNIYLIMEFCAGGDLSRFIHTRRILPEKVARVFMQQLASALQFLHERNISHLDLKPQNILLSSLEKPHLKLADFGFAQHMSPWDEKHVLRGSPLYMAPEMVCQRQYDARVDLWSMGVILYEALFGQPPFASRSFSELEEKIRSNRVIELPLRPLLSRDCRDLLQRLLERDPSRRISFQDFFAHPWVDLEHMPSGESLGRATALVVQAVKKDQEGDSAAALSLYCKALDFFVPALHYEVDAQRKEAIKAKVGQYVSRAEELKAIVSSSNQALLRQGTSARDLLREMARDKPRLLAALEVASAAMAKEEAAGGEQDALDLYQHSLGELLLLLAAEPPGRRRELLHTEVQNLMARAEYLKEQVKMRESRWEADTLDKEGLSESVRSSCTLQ

[2] = molecular target: Ribosomal protein S6 kinase alpha-1 (Homo sapiens) (UniProt Q15418); experiment: Inhibition of RSK1 domain1 activation Loop (LTDFGLSKEAIDHEKK) in human PBMC at 0.1 uM
[3] = molecular target: Cyclin-dependent kinase 2 (Homo sapiens) (UniProt P24941); experiment: Inhibition of CDK2 labeling at conserved Lys2 (DLKPQNLLINTEGAIK) in human PBMC at 0.1 uM
[4] = molecular target: Dual specificity mitogen-activated protein kinase kinase 2 (Homo sapiens) (UniProt P36507); experiment: Inhibition of MAP2K2 conserved Lys2 (IMHRDVKPSNILVNSR) in human PBMC at 0.1 uM
[5] = molecular target: T2, Serine/threonine-protein kinase LATS1 (Homo sapiens) (UniProt O95835); experiment: Inhibition of LATS1 conserved Lys2 (DIKPDNILIDR) in human PBMC at 0.1 uM
T2 sequence (whole entry): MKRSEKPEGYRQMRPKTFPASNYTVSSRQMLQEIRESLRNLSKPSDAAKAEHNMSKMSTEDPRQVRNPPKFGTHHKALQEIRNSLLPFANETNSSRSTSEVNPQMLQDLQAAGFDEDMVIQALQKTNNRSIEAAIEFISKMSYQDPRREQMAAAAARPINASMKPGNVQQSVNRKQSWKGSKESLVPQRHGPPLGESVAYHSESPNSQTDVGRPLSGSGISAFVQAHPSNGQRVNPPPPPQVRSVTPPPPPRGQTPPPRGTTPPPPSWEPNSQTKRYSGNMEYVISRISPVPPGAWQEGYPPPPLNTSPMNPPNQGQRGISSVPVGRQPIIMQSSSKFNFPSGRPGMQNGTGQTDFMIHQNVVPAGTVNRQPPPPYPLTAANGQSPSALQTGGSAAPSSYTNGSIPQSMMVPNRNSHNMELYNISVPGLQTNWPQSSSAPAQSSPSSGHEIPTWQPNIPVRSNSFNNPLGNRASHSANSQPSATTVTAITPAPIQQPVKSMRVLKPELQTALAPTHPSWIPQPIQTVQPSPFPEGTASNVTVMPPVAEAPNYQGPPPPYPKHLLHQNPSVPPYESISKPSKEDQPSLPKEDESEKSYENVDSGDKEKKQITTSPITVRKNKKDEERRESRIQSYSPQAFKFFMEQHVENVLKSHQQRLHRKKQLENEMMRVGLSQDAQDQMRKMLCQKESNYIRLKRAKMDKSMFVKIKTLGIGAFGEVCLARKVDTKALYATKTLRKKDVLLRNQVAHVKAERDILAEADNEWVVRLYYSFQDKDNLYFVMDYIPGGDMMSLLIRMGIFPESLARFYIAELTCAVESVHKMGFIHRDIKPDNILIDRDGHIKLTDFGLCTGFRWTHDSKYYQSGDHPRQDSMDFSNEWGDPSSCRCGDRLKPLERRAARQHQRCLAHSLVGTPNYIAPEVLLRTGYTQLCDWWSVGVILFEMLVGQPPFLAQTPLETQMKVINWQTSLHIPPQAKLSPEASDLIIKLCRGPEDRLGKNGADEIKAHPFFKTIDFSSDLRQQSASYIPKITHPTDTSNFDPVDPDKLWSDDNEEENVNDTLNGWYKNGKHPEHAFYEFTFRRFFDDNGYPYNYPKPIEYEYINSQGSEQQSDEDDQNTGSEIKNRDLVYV

[6] = molecular target: Serine/threonine-protein kinase Chk2 (Homo sapiens) (UniProt O96017); experiment: Inhibition of CHK2 labeling at conserved Lys2 (DLKPENVLLSSQEEDCLIK) in human PBMC at 0.1 uM
[7] = Aqueous solubility of the compound in pH 7.4; assay type: physicochemical; conditions: aqueous medium
[8] = molecular target: Tyrosine-protein kinase Fer (Homo sapiens) (UniProt P16591); experiment: Inhibition of FER conserved Lys2 (QEDGGVYSSSGLKQIPIK) in human PBMC at 0.1 uM
[9] = molecular target: Calcium/calmodulin-dependent protein kinase type II subunit delta (Homo sapiens) (UniProt Q13557); experiment: Inhibition of CaMK2d labeling at conserved Lys2 (DLKPENLLLASK) in human PBMC at 0.1 uM
[10] = molecular target: Serine/threonine-protein kinase Nek9 (Homo sapiens) (UniProt Q8TD19); experiment: Inhibition of NEK9 conserved Lys2 (DIKTLNIFLTK) in human PBMC at 0.1 uM
[11] = molecular target: Tyrosine-protein kinase Fyn (Homo sapiens) (UniProt P06241); experiment: Inhibition of FYN activation Loop (QGAKFPIKWTAPEAALYGR) in human PBMC at 0.1 uM
[12] = molecular target: T3, Serine/threonine-protein kinase 3 (Homo sapiens) (UniProt Q13188); experiment: Inhibition of MST2 conserved Lys1 (ESGQVVAIKQVPVESDLQEIIK) in human PBMC at 0.1 uM
T3 sequence (whole entry): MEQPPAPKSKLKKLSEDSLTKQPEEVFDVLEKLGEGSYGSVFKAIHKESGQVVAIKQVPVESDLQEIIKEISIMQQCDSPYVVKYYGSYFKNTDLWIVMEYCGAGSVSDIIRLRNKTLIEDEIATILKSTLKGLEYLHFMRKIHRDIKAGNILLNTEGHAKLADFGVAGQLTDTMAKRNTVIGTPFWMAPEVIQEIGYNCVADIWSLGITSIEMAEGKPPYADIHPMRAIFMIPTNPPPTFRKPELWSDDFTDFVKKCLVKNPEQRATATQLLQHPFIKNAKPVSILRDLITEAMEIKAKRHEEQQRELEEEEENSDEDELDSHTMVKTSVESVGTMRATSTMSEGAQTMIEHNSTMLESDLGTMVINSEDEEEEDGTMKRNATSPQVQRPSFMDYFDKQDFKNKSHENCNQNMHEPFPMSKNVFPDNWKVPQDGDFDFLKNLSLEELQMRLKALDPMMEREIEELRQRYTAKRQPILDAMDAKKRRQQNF

Sequence of Tyrosine-protein kinase Fyn (Homo sapiens) (P06241 2-537 limits assumed): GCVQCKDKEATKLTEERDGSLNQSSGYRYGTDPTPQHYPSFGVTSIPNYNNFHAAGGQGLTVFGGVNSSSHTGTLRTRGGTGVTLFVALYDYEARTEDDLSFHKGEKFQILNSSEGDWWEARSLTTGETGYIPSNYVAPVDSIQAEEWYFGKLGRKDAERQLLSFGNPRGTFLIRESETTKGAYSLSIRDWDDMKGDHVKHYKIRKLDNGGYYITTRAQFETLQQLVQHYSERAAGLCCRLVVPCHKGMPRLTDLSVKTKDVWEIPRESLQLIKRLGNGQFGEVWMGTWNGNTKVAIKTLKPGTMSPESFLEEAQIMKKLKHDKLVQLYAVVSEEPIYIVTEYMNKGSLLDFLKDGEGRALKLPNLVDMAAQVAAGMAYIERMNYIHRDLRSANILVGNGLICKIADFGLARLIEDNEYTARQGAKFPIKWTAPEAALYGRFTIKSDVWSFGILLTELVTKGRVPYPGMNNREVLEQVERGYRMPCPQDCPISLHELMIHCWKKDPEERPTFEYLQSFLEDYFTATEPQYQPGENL
Sequence of Serine/threonine-protein kinase Chk2 (Homo sapiens) (O96017 whole entry): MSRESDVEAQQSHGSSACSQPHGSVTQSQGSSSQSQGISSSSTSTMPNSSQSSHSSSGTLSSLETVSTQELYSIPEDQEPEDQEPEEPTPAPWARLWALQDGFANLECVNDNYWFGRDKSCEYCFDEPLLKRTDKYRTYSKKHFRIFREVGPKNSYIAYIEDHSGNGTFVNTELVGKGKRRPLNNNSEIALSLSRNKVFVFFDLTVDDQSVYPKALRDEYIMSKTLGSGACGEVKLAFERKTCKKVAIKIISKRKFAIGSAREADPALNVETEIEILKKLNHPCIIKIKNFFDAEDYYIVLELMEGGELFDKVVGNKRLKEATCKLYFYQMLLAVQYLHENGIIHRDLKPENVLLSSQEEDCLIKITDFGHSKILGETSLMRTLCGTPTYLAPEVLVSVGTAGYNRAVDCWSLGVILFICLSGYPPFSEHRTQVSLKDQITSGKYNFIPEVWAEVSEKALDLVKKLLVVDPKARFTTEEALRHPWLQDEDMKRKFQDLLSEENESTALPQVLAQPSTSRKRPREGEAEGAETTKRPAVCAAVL
Sequence of Dual specificity mitogen-activated protein kinase kinase 2 (Homo sapiens) (P36507 whole entry): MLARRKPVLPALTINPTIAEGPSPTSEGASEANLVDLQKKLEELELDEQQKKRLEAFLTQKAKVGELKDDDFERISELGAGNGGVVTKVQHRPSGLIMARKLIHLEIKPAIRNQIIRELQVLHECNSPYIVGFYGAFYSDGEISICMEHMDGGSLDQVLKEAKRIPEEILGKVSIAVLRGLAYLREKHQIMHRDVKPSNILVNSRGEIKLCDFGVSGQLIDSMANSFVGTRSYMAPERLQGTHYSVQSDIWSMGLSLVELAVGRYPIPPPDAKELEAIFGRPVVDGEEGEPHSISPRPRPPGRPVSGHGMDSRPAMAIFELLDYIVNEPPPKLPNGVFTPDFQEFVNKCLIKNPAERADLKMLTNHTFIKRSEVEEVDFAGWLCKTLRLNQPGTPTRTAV
Sequence of Calcium/calmodulin-dependent protein kinase type II subunit delta (Homo sapiens) (Q13557 whole entry): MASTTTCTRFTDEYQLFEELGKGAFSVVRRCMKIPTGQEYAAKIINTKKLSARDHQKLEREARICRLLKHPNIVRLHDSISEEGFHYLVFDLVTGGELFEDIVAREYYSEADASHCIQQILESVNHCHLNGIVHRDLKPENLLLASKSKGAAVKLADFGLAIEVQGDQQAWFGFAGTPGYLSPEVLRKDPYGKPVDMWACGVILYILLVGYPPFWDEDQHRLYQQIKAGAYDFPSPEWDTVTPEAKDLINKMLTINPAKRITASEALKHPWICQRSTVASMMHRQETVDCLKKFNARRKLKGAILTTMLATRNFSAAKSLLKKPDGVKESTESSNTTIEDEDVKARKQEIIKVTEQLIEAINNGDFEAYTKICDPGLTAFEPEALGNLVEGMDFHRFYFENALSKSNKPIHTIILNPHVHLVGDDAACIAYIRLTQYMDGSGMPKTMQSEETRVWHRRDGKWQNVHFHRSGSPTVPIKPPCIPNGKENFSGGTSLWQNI
Sequence of Serine/threonine-protein kinase Nek9 (Homo sapiens) (Q8TD19 whole entry): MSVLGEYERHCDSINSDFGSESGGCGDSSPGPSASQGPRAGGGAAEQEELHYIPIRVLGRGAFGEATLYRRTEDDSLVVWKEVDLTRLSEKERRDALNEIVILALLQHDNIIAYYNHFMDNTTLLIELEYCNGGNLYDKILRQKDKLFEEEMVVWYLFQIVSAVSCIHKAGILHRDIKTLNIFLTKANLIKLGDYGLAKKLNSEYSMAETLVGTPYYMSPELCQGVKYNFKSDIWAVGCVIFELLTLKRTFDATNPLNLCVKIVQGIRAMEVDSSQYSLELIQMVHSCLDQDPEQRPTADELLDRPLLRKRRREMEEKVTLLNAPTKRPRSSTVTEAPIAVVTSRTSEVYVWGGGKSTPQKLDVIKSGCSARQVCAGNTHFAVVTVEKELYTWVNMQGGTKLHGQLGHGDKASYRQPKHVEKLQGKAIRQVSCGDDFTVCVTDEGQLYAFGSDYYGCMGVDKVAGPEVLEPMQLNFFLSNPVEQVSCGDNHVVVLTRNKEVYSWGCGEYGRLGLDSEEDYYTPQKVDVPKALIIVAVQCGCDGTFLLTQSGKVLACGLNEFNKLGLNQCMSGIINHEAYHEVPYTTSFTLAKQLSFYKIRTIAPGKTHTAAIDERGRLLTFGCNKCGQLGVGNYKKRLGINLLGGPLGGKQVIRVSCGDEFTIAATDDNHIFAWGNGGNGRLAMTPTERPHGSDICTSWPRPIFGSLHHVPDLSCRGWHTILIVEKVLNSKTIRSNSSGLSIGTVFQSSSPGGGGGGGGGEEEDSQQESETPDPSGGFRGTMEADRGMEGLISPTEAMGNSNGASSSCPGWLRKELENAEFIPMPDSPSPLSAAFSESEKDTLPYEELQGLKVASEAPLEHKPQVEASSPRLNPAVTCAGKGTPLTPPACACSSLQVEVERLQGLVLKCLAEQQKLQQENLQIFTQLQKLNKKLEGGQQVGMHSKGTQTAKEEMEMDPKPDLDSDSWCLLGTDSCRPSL
Sequence of Tyrosine-protein kinase Fer (Homo sapiens) (P16591 whole entry, looked up): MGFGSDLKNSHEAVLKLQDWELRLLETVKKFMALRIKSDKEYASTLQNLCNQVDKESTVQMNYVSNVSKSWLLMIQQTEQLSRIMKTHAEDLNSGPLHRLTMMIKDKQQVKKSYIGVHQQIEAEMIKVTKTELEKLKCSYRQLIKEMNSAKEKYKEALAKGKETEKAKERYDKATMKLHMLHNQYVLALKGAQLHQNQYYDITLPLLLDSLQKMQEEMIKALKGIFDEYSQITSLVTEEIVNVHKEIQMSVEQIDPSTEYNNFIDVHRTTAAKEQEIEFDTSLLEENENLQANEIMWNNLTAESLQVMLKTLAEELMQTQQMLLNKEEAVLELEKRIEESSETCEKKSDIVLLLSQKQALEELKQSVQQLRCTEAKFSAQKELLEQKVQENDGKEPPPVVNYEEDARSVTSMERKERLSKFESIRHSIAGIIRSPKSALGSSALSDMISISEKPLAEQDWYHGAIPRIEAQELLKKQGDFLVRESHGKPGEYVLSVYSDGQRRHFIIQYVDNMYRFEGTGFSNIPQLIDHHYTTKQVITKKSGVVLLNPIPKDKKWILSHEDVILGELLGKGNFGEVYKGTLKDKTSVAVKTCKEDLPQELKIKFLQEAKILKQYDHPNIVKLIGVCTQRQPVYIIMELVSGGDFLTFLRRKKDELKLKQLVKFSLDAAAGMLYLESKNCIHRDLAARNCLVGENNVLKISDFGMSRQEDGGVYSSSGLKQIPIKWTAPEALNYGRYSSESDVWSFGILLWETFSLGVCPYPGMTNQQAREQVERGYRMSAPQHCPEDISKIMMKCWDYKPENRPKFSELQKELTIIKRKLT
Sequence of Ribosomal protein S6 kinase alpha-1 (Homo sapiens) (Q15418 whole entry, the tested form may be a part): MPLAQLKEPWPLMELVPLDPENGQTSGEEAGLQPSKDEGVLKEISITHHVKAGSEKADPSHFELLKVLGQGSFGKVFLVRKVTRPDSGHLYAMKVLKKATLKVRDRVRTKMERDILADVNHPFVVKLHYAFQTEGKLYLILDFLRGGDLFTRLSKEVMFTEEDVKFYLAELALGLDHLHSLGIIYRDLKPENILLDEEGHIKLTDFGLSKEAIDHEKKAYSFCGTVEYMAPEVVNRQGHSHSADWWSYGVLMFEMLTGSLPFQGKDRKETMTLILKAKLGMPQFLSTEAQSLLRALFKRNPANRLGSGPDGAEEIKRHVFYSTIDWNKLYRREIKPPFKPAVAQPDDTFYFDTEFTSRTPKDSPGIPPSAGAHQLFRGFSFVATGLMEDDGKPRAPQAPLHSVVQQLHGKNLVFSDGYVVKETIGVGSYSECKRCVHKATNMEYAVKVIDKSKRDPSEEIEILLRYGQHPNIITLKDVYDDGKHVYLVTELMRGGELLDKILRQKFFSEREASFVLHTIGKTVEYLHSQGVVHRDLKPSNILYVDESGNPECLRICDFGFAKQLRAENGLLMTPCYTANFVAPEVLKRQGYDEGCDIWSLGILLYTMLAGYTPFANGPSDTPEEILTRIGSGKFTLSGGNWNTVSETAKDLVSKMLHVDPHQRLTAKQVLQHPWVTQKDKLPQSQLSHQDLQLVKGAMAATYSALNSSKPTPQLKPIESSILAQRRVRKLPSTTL

For CC(C)n1cc(-c2cc(-c3ccc(CN4CCOCC4)cc3)cnc2N)nn1, the inhibition [1] was 23.5%, the inhibition [2] was 17.2% and the inhibition [3] was 19.2%. It also gave an inhibition [4] of -5.6%, an inhibition [5] of 34.9% and an inhibition [6] of -4.8%. For the same compound, the solubility [7] was 36 µg/mL (≈ 95.1 µM), the inhibition [8] was 8.5% and the inhibition [9] was -7.5%. It also gave an inhibition [10] of 26.5%, an inhibition [11] of -4.4% and an inhibition [12] of 7.7%.
